The NIST ThermoML archive (doi:10.1021/je0601457)

Assay: xn = mol fraction of the nth substance listed

Cc1nccnc1C [2,3-dimethylpyrazine] + O=C=O
Fluid (supercritical or subcritical phases), Linear displacement technique
Details | mass density [kg/m3]
328.55 K, 14100 kPa, x1 = 0.291 | 857
328.55 K, 15620 kPa, x1 = 0.01 | 757
328.55 K, 16930 kPa, x1 = 0.291 | 859
329.65 K, 6660 kPa, x1 = 0.565 | 912
329.65 K, 8240 kPa, x1 = 0.565 | 914
329.65 K, 14590 kPa, x1 = 0.565 | 919
329.75 K, 12170 kPa, x1 = 0.033 | 656
329.75 K, 12970 kPa, x1 = 0.033 | 684
329.75 K, 14310 kPa, x1 = 0.033 | 713
329.75 K, 16930 kPa, x1 = 0.033 | 765
329.85 K, 12860 kPa, x1 = 0.108 | 845
329.85 K, 14590 kPa, x1 = 0.108 | 855
329.85 K, 19000 kPa, x1 = 0.108 | 879
330.35 K, 11790 kPa, x1 = 0.157 | 902
330.35 K, 14240 kPa, x1 = 0.157 | 919
330.35 K, 17550 kPa, x1 = 0.157 | 937
331.65 K, 11550 kPa, x1 = 0.086 | 645
331.65 K, 12210 kPa, x1 = 0.057 | 762
331.65 K, 12830 kPa, x1 = 0.057 | 785
331.65 K, 14030 kPa, x1 = 0.086 | 676
331.65 K, 15620 kPa, x1 = 0.086 | 689
331.65 K, 19380 kPa, x1 = 0.057 | 886
332.85 K, 12790 kPa, x1 = 0.049 | 767
332.85 K, 14620 kPa, x1 = 0.049 | 811
332.85 K, 15690 kPa, x1 = 0.049 | 834
333.95 K, 5520 kPa, x1 = 0.736 | 855
333.95 K, 12830 kPa, x1 = 0.736 | 858
333.95 K, 19520 kPa, x1 = 0.736 | 858
335.15 K, 12970 kPa, x1 = 0.027 | 605
335.15 K, 13550 kPa, x1 = 0.027 | 633
335.15 K, 14590 kPa, x1 = 0.027 | 668
338.75 K, 11790 kPa, x1 = 0.184 | 860
338.75 K, 14170 kPa, x1 = 0.184 | 874
338.75 K, 16720 kPa, x1 = 0.184 | 886
340.75 K, 12790 kPa, x1 = 0.108 | 786
340.75 K, 14030 kPa, x1 = 0.108 | 810
340.75 K, 17340 kPa, x1 = 0.108 | 837
340.75 K, 20170 kPa, x1 = 0.108 | 858
341.25 K, 10790 kPa, x1 = 0.01 | 327
341.95 K, 8900 kPa, x1 = 0.433 | 918
341.95 K, 12340 kPa, x1 = 0.433 | 926
341.95 K, 17480 kPa, x1 = 0.433 | 934
341.95 K, 23830 kPa, x1 = 0.433 | 945
343.15 K, 13410 kPa, x1 = 0.057 | 679
343.15 K, 14660 kPa, x1 = 0.057 | 719
343.15 K, 16170 kPa, x1 = 0.057 | 750
343.25 K, 14210 kPa, x1 = 0.033 | 585
343.25 K, 14930 kPa, x1 = 0.033 | 615
343.25 K, 16340 kPa, x1 = 0.033 | 657
345.05 K, 14100 kPa, x1 = 0.049 | 698
345.05 K, 15410 kPa, x1 = 0.049 | 745
345.05 K, 17240 kPa, x1 = 0.049 | 791
345.85 K, 15140 kPa, x1 = 0.086 | 626
345.85 K, 15900 kPa, x1 = 0.086 | 638
347.05 K, 11760 kPa, x1 = 0.291 | 853
347.05 K, 14070 kPa, x1 = 0.291 | 855
347.05 K, 18860 kPa, x1 = 0.291 | 857
347.65 K, 8210 kPa, x1 = 0.565 | 895
347.65 K, 11830 kPa, x1 = 0.565 | 901
347.65 K, 18520 kPa, x1 = 0.565 | 907
347.85 K, 12690 kPa, x1 = 0.184 | 828

Liquid, linear displacement
Details | mass density [kg/m3]
328.55 K, x1 = 0.291 | 855
329.65 K, x1 = 0.565 | 909
329.75 K, x1 = 0.033 | 560
329.85 K, x1 = 0.108 | 822
330.35 K, x1 = 0.157 | 884
331.65 K, x1 = 0.057 | 719
331.65 K, x1 = 0.086 | 627
332.85 K, x1 = 0.049 | 708
333.95 K, x1 = 0.736 | 854
338.75 K, x1 = 0.184 | 852
340.75 K, x1 = 0.108 | 771
341.95 K, x1 = 0.433 | 915
343.15 K, x1 = 0.057 | 639
345.05 K, x1 = 0.049 | 638
345.85 K, x1 = 0.086 | 579
347.05 K, x1 = 0.291 | 852
347.65 K, x1 = 0.565 | 893
